Source: the supplement of paper PMC11208160

Experiment: recombinant UMI read abundance after kanamycin selection (control-corrected) (log10(CPM+1)); higher = more efficient recombination; extreme values may be limits of the assay; sequences stand for … in AGTGCAGAGAAAATCGGCCAGTTTTCTCTGCCTGCAGTCCGCATGCCGTGGGACCCCTTGGGTTCTAACCTGTTGCCTAGATTTATGCAGCGGACTGCCTTTCTCCCAAAGTGATAAACCGG…AGGTTGGTTTCACT; site = the 11-nt donor
In short: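 Values are reported as log10(CPM+1), obtained by converting sequencing counts to CPM, averaging replicates and scaling by control-derived factors. The counts came from recombinant UMIs amplified by PCR across the donor–target junction. These UMIs came from a pooled Escherichia coli screen of donor and donor-binding-loop pairs for the IS621 bridge recombinase, plated with IPTG (0.07 mM) plus kanamycin or left unselected, in two replicates each.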
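Further: IS621 bridge recombinase in Escherichia coli cells against a fixed T5 target plasmid.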

| Sequence | recombinant UMI read abundance (log10) |
| --- | --- |
| GTATGCACATGGACCGGTTTTCCCGGTAATCCGTATTTGTC (site GTATGCACTGA) | 3.13 |
| GTATGCACATGGACCGGTTTTCCCGGTAATCCGTATTTGTC (site GTATGCACTTA) | 1.33 |
| GTATGCACATGGACCGGTTTTCCCGGTAATCCGTATTTGTT (site GTATGCACTAA) | 1.32 |
| GTATGCACATGGACCGGTTTTCCCGGTAATCCGTATTTGTT (site GTATGCACTCA) | 0.25 |
| GTATGCACATGGACCGGTTTTCCCGGTAATCCGTATTTGTT (site GTATGCACTGA) | 1.66 |
| GTATGCACATGGACCGGTTTTCCCGGTAATCCGTATTTGTT (site GTATGCACTTA) | 0.606 |
| GTATGTACATGGACCGGTTTTCCCGGTAATCCGTATTTGAC (site GTAAGTACTGT) | 0.262 |
| GTATGTACATGGACCGGTTTTCCCGGTAATCCGTATTTGAC (site GTACGTACTGT) | 2.5 |
| GTATGTACATGGACCGGTTTTCCCGGTAATCCGTATTTGAC (site GTAGGTACTGT) | 0.95 |
| GTATGTACATGGACCGGTTTTCCCGGTAATCCGTATTTGAC (site GTATGTACTGT) | 2.9 |
| GTATTAACATGGACCGGTTTTCCCGGTAATCCGTATTTGCA (site GTATTAACTTG) | 2.37 |
| GTATTATCATGGACCGGTTTTCCCGGTAATCCGTATTTGTG (site GTATTATCTCA) | 2.22 |
| GTATTCACATGGACCGGTTTTCCCGGTAATCCGTATTTGTA (site GTATACACTTA) | 0.154 |
| GTATTCACATGGACCGGTTTTCCCGGTAATCCGTATTTGTA (site GTATCCACTTA) | 0.507 |
| GTATTCACATGGACCGGTTTTCCCGGTAATCCGTATTTGTA (site GTATGCACTTA) | 0.0233 |
| GTATTCACATGGACCGGTTTTCCCGGTAATCCGTATTTGTA (site GTATTCACTTA) | 2.35 |
| GTATTGACATGGACCGGTTTTCCCGGTAATCCGTATTTGTG (site GTATTGACTCA) | 1.4 |
| GTCAAAGCATGGACCGGTTTTCCCGGTAATCCGTATTTGGT (site GTCAAAGCTAC) | 2.11 |
| GTCAACACATGGACCGGTTTTCCCGGTAATCCGTATTTGTC (site GTCAACACTGA) | 2.35 |
| GTCAGATCATGGACCGGTTTTCCCGGTAATCCGTATTTGCG (site GTCAGATCTCG) | 1.77 |
| GTCAGTGCATGGACCGGTTTTCCCGGTAATCCGTATTTGCA (site GTCAGTGCTTG) | 2.49 |
| GTCCAGGCATGGACCGGTTTTCCCGGTAATCCGTATTTGTA (site GTCCAGGCTTA) | 0.928 |
| GTCCTATCATGGACCGGTTTTCCCGGTAATCCGTATTTGGA (site GTCCTATCTTC) | 1.41 |
| GTCCTTACATGGACCGGTTTTCCCGGTAATCCGTATTTGAG (site GTCCTTACTCT) | 0.376 |
| GTCGAACCATGGACCGGTTTTCCCGGTAATCCGTATTTGAC (site GTCGAACCTGT) | 0 |

| Sequence | recombinant UMI read abundance (log10) |
| --- | --- |
| GTCGAATCATGGACCGGTTTTCCCGGTAATCCGTATTTGGG (site GTCGAATCTCC) | 0.914 |
| GTCGAGTCATGGACCGGTTTTCCCGGTAATCCGTATTTGTT (site GTCGAGTCTAA) | 2.79 |
| GTCGGGACATGGACCGGTTTTCCCGGTAATCCGTATTTGGG (site GTCGGGACTCC) | 0.0114 |
| GTCGGGGCATGGACCGGTTTTCCCGGTAATCCGTATTTGGC (site GTCGGGGCTGC) | 1.22 |
| GTCGTAGCATGGACCGGTTTTCCCGGTAATCCGTATTTGCC (site GTCGTAGCTGG) | 2.67 |
| GTCGTTGCATGGACCGGTTTTCCCGGTAATCCGTATTTGAA (site GTCGTTGCTTT) | 2.14 |
| GTCTATACATGGACCGGTTTTCCCGGTAATCCGTATTTGAC (site ATCTATACTGT) | 0.841 |
| GTCTATACATGGACCGGTTTTCCCGGTAATCCGTATTTGAC (site CTCTATACTGT) | 0.0424 |
| GTCTATACATGGACCGGTTTTCCCGGTAATCCGTATTTGAC (site GTCTATACTGT) | 2.33 |
| GTCTATACATGGACCGGTTTTCCCGGTAATCCGTATTTGAC (site TTCTATACTGT) | 1.01 |
| GTCTATTCATGGACCGGTTTTCCCGGTAATCCGTATTTGAC (site GTCTATTCTGT) | 2.09 |
| GTCTGATCATGGACCGGTTTTCCCGGTAATCCGTATTTGCG (site GTCTGATCTCG) | 2.17 |
| GTCTGATCATGGACCGGTTTTCCCGGTAATCCGTATTTGGG (site GTCTGATCTCC) | 0.011 |
| GTCTGCACATGGACCGGTTTTCCCGGTAATCCGTATTTGTA (site GTATGCACTTA) | 0.0171 |
| GTCTGCACATGGACCGGTTTTCCCGGTAATCCGTATTTGTA (site GTCTGCACTTA) | 1.44 |
| GTCTGCACATGGACCGGTTTTCCCGGTAATCCGTATTTGTA (site GTGTGCACTTA) | 0.0326 |
| GTCTGCACATGGACCGGTTTTCCCGGTAATCCGTATTTGTA (site GTTTGCACTTA) | 0.0829 |
| GTGAGAACATGGACCGGTTTTCCCGGTAATCCGTATTTGGC (site GTAAGAACTGC) | 2.2 |
| GTGAGAACATGGACCGGTTTTCCCGGTAATCCGTATTTGGC (site GTCAGAACTGC) | 0 |
| GTGAGAACATGGACCGGTTTTCCCGGTAATCCGTATTTGGC (site GTGAGAACTGC) | 1.49 |
| GTGAGAACATGGACCGGTTTTCCCGGTAATCCGTATTTGGC (site GTTAGAACTGC) | 0 |
| GTGAGGTCATGGACCGGTTTTCCCGGTAATCCGTATTTGCT (site GTGAGGTCTAG) | 3.11 |
| GTGATTCCATGGACCGGTTTTCCCGGTAATCCGTATTTGCA (site GTGATTCCTTG) | 1.09 |
| GTGATTCCATGGACCGGTTTTCCCGGTAATCCGTATTTGGA (site GTGATTCCTTC) | 0.421 |
| GTGATTCCATGGACCGGTTTTCCCGGTAATCCGTATTTGGT (site GTGATTCCTAC) | 0.318 |

| Sequence | recombinant UMI read abundance (log10) |
| --- | --- |
| GTGCCTACATGGACCGGTTTTCCCGGTAATCCGTATTTGGC (site GTGCCTACTGC) | 1.12 |
| GTGCTGACATGGACCGGTTTTCCCGGTAATCCGTATTTGTT (site GTGCTGACTAA) | 0.314 |
| GTGCTTACATGGACCGGTTTTCCCGGTAATCCGTATTTGTA (site GTGCTTACTTA) | 0.318 |
| GTGGAGGCATGGACCGGTTTTCCCGGTAATCCGTATTTGCG (site GTGGAGGCTCA) | 1.56 |
| GTGGAGGCATGGACCGGTTTTCCCGGTAATCCGTATTTGCG (site GTGGAGGCTCC) | 0.392 |
| GTGGAGGCATGGACCGGTTTTCCCGGTAATCCGTATTTGCG (site GTGGAGGCTCG) | 2.28 |
| GTGGAGGCATGGACCGGTTTTCCCGGTAATCCGTATTTGCG (site GTGGAGGCTCT) | 0.716 |
| GTGGAGGCATGGACCGGTTTTCCCGGTAATCCGTATTTGTC (site GTGGAGGCTAA) | 0.657 |
| GTGGAGGCATGGACCGGTTTTCCCGGTAATCCGTATTTGTC (site GTGGAGGCTCA) | 0.549 |
| GTGGAGGCATGGACCGGTTTTCCCGGTAATCCGTATTTGTC (site GTGGAGGCTGA) | 2.67 |
| GTGGAGGCATGGACCGGTTTTCCCGGTAATCCGTATTTGTC (site GTGGAGGCTTA) | 1.64 |
| GTGGAGGCATGGACCGGTTTTCCCGGTAATCCGTATTTGTG (site ATGGAGGCTCA) | 1.53 |
| GTGGAGGCATGGACCGGTTTTCCCGGTAATCCGTATTTGTG (site CTGGAGGCTCA) | 0.921 |
| GTGGAGGCATGGACCGGTTTTCCCGGTAATCCGTATTTGTG (site GAGGAGGCTCA) | 0.602 |
| GTGGAGGCATGGACCGGTTTTCCCGGTAATCCGTATTTGTG (site GCGGAGGCTCA) | 0.6 |
| GTGGAGGCATGGACCGGTTTTCCCGGTAATCCGTATTTGTG (site GGGGAGGCTCA) | 0 |
| GTGGAGGCATGGACCGGTTTTCCCGGTAATCCGTATTTGTG (site GTAGAGGCTCA) | 1.94 |
| GTGGAGGCATGGACCGGTTTTCCCGGTAATCCGTATTTGTG (site GTCGAGGCTCA) | 0.00904 |
| GTGGAGGCATGGACCGGTTTTCCCGGTAATCCGTATTTGTG (site GTGAAGGCTCA) | 1.1 |
| GTGGAGGCATGGACCGGTTTTCCCGGTAATCCGTATTTGTG (site GTGCAGGCTCA) | 0.25 |
| GTGGAGGCATGGACCGGTTTTCCCGGTAATCCGTATTTGTG (site GTGGAAGCTCA) | 2.56 |
| GTGGAGGCATGGACCGGTTTTCCCGGTAATCCGTATTTGTG (site GTGGACGCTCA) | 1.02 |
| GTGGAGGCATGGACCGGTTTTCCCGGTAATCCGTATTTGTG (site GTGGAGACTCA) | 0.959 |
| GTGGAGGCATGGACCGGTTTTCCCGGTAATCCGTATTTGTG (site GTGGAGCCTCA) | 0.0109 |
| GTGGAGGCATGGACCGGTTTTCCCGGTAATCCGTATTTGTG (site GTGGAGGCTAA) | 0.431 |
